One data set relates to N1-IC-transduced mice. The data set can be described thus: Rapamycin treatment of Fc or N1-IC-transduced mice. The format is in vivo, mouse. The note with it: data not shown. Here is the method:
FIG. 9A-FIG. 9F: mTor inhibition prevents Notch-induced fatty liver. Data shown means±SEM. FIG. 9A: Fasn-luciferase in FAO hepatoma cells transfected with either Raptor or scrambled (scr) shRNA, transduced with either Fc (−) or N1-IC (Notch) adenovirus and treated for 16-h with 100 nM insulin. ***p<0.001 vs. Fc control, &p<0.001 vs. scrambled shRNA, #p<0.001 vs. no insulin. […]
Blood glucose was measured by glucose meter (OneTouch) and plasma insulin by ELISA (Millipore). […] Hepatic de novo lipogenesis was determined by measuring the amount of newly synthesized FA, as resolved by TLC, present in the liver 1 h after intraperitoneal injection of 1 mCi of 3H2O (Zhang 2006). Triglyceride secretion rate was measured after injection of Poloxamer 407, with serial measurement of plasma triglycerides (Li 2011).
(§1) Notch1-IC, Notch decoy (1-24), Fc and GFP adenoviruses have been described (Kitamura 2007; Funahashi 2011; Nakae 2003). We transduced primary hepatocytes or HEK 293 ceils at MOI 5 and FAO hepatoma cells at MOI 200, to achieve 90-100% infection efficiency as assessed by GFP expression. […]

The next data set relates to FAO hepatoma cells. The data set can be described thus: Western blots / gene expression in FAO hepatoma cells transduced with Fc or N1-IC. Format: cell-based. The note with it: MG132 for 4-h.
Excerpt: FIG. 8A-FIG. 8F: Activation of hepatic Notch increases mTor, lipogenic genes, and steatosis in chow-fed mice. *p<0.05, **p<0.01, ***p<0.001 vs. Fc or GFP. Protein expression normalized to either Actin or Tubulin. Mice were 8-week-old C57Bl/6 males, unless otherwise indicated. […] FIG. 8D: Liver Western blots in mice transduced with GFP or N1-IC adenovirus, sacrificed after a 16-h fast followed by 2-h refeeding. (n=6/group). FIG. 8E: Gene expression analysis in mice transduced with GFP or N1-IC adenovirus, sacrificed after a 16-h fast followed by 2-h refeeding. (n=6/group). FIG. 8F: De novo lipogenesis in hepatocytes after transduction with GFP or N1-IC adenovirus and incubation with 10 nM insulin (triplicate wells, representative of 2 individual experiments). FIG. 8G: Hepatic triglyceride content 7-d after GFP or N1-IC transduction in 16-h fasted, 24-week-old, chow-fed Cre- and L-Rbpj mice. […] FIG. 8K-FIG. 8M: Quantitation of the phospho/total mTor, 4E-BP1 and S6k levels from the experiments in FIG. 8J. […]
as §1
A general note: In western blotting, separated proteins are transferred to a membrane and probed.

The next data set concerns primary hepatocytes. Nature of the data set: Western blots of primary hepatocytes transfected with Raptor cDNA, transduced with Fc or Notch1, cycloheximide. Format: cell-based, mouse. The conditions noted are these: cycloheximide for 2-h. Here is the method:
FIG. 11A-FIG. 11H: Notch induces mTorc1 complex stability. FIG. 11A: Western blots of liver proteins from 5h-fasted L-Rbpj and control mice (mTor and Actin blots reproduced from FIG. 2n), FIG. 11B: Western blot of liver protein from chow-fed, 12-week-old mice transduced with Fc or N1-IC, sacrificed at day 7, after overnight fasting. FIG. 11C: Western blots from FAO hepatoma cells transduced with either Fc or N1-IC, with or without treatment with MG132 for 4-h. FIG. 11D: Western blots of primary hepatocytes, transfected with Raptor cDNA, then transduced with Fc or Notch1 and treated for 2-h with cycloheximide. […]
We isolated and cultured primary mouse hepatocytes as described (Pajvani 2011). […] We measured fatty acid oxidation as described (Li 2011), with the following modifications: primary hepatocytes were incubated serum-free medium with 1.5% fatty-acid free BSA (Sigma) containing 0.1 mM cold oleic acid and 1 μCi 14C-oleic acid (PerkinElmer Life Sciences) for 4 h. […] Trapped 14CO2 on the alkalinized filter paper was measured as described (Li 2011). We measured lipogenesis as described (Yecies 2011), with the following modifications: hepatocytes were stimulated with 10 nM insulin in serum-free DMEM for 2 h, then labeled with 14C-acetate (PerkinElmer Life Sciences) for 2 h. […]

Molecules are shown by their SMILES. Entries after “also recorded” stand apart in the source; their conditions may differ. Peptide text beside a SMILES is read from it. * marks the point of attachment. Cbz = O=C(OCc1ccccc1)*

Regarding `CO[C@H]1C[C@@H]2CC[C@@H](C)[C@@](O)(O2)C(=O)C(=O)N2CCCC[C@H]2C(=O)O[C@H]([C@H](C)C[C@@H]2CC[C@@H](O)[C@H](OC)C2)CC(=O)[C@H](C)/C=C(\C)[C@@H](O)[C@@H](OC)C(=O)[C@H](C)C[C@H](C)/C=C/C=C/C=C/1C` [rapamycin], in the data set with N1-IC-transduced mice, the “effect of rapamycin on glucose tolerance” value is on record as “mild glucose intolerance”.

Take `CC(C)C[C@@H](C=O)NC(=O)[C@H](CC(C)C)NC(=O)[C@H](CC(C)C)NC(=O)OCc1ccccc1` [MG132] (Cbz-Leu-Leu-Leu-aldehyde): the “effect of N1-IC on Raptor protein under proteosomal inhibition” value in the data set on FAO hepatoma cells is “independent”. Regarding `C[C@@H]1C[C@@H]([C@H](O)CC2CC(=O)NC(=O)C2)C(=O)[C@@H](C)C1` [cycloheximide], in the data set with primary hepatocytes, the “effect of N1-IC on Raptor protein under protein synthesis inhibition” value is recorded as “fully reversed; also recorded: prevents”.

Values taken from patent publication US20180303901A1, “Notch1 Decoy Antagonists Protect From Obesity-Induced Insulin Resistance and Fatty Liver” (The Trustees of Columbia University in the City of New York, priority 2013, published 2018).
